Assay results as given in paper PMC8900826, “Structural basis for substrate recognition in the Phytolacca americana glycosyltransferase PaGT3” (Acta Crystallographica. Section D, Structural Biology, 2022).

Tests used:
Assay in all cases: X-ray crystal structure, […] A
Type in all cases: binding
PaGT3 [1] = target: T1, PaGT3 (Phytolacca americana, UniProt B5MGN9); settings: soaked into PaGT3/UDP-2FGlc crystals; acceptor site, molecule B only, occupancy 0.8
T1 construct: full length; N-terminal His6 tag with TEV site, cut off (one Gly left before Met1); expressed in E. coli BL21 (DE3); two molecules in the asymmetric unit
T1 sequence (B5MGN9 entry or part of it): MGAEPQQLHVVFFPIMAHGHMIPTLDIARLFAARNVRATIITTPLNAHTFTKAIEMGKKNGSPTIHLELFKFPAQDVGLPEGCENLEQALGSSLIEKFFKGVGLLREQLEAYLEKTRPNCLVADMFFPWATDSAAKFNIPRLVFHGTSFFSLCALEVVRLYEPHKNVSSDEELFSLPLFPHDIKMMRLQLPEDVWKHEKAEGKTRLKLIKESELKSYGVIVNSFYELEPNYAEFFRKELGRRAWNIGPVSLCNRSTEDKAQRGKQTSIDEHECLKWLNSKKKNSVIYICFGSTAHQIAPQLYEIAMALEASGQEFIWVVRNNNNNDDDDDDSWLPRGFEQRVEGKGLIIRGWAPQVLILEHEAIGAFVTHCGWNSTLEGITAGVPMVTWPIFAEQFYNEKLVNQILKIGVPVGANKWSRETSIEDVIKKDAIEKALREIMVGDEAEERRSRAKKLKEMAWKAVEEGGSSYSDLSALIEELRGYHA

PaGT3 [2] = target: T1, PaGT3; settings: co-crystallized without acceptor; sugar-donor site; non-transferred donor analogue; also bound in 7vej and 7vek
PaGT3 [3] = target: T1, PaGT3; settings: co-crystallized with UDP-2FGlc; acceptor site, both molecules, two different positions

SMILES: COc1cc(CNC(=O)CCCC/C=C/C(C)C)ccc1O [capsaicin]
- X-ray crystal structure, 2.60 A (PaGT3 [1]): The calculated polder map confirms the occupancy of capsaicin in PaGT3 molecule B.

SMILES: O=c1ccn([C@@H]2O[C@H](COP(=O)(O)OP(=O)(O)O[C@H]3O[C@H](CO)[C@@H](O)[C@H](O)[C@H]3F)[C@@H](O)[C@H]2O)c(=O)[nH]1 [UDP-2FGlc]
- X-ray crystal structure, 2.20 A (PaGT3 [2]): The crystal structure of PaGT3 with the sugar-donor analogue UDP-2FGlc was determined

SMILES: O=c1c(O)c(-c2ccc(O)cc2)oc2cc(O)cc(O)c12 [kaempferol]
- X-ray crystal structure, 1.85 A (PaGT3 [3]): The electron density of kaempferol in both molecules of the enzyme
